Tests used:
Type in all cases: cell-based
[1] = tested on: Bacillus subtilis C-3102 (FERM BP-1096); experiment: Germination induction by ferulic acid, vanillic acid or p-coumaric acid at 300 ppm, turbidity change (Example 3); settings: for turbidity (630 nm): 37° C., 150 rpm
Description: In each 500 mL of distilled water heated to 70° C. was added 0.3 g of ferulic acid, vanillic acid, or p-coumaric acid. After dissolving with stirring using a stirring rod with a propeller, filtration sterilization (0.45 μm filter) was conducted to prepare each 600 ppm-solution.
Next, 500 μL aliquots of bacterial suspension of Bacillus subtilis C-3102 (FERM BP-1096) prepared by a similar method as in Example 1 were mixed with 500 μL of each of the ferulic acid, vanillic acid, and p-coumaric acid solutions, and the mixtures were adjusted to 300 ppm of ferulic acid, vanillic acid, or p-coumaric acid concentration. Defining the time point of mixing as the reaction initiation (0 min), and continuing shaking (150 rpm) at 37° C., the turbidity (630 nm) was measured at 10, 20, 30, 40, 50, 60, 90, 120, and 180 min after the reaction initiation.

[2] = tested on: Bacillus subtilis C-3102 (FERM BP-1096); experiment: Germination induction, change of turbidity (630 nm) of spore suspension; settings: 300 ppm; for turbidity (630 nm): 37° C., 150 rpm; for germination confirmed by turbidity decrease: up to 180 min
Description: (§1) It is possible to determine whether spores have germinated, after measuring an OD 630 value (turbidity at 630 nm) of the liquid culture, based on decrease in the value (Literature: Microbiology, (1950), 4, 3, 330-338). Briefly, bacterial cells after culturing are washed with distilled water and diluted with distilled water to OD 630=1.0, which is then mixed with an equal volume of a germination induction solution, and the turbidity at 630 nm is measured by a UV spectrophotometer at room temperature.
(§2) TS culture media (Difco, Trypticase Soy Broth) were inoculated respectively with 11 strains listed in Table 1 and cultured at 50° C. with respect to Geobacillus stearothermophilus NBRC13737 and Aeribacillus pallidus TK6004 (FERM BP-08597), and at 37° C. with respect to the other 9 strains, until respective colonies were established. Then with respect to each of 11 strains, a loop full of a single colony was scratched by a platinum loop and suspended in 500 μL of sterilized water. In 1000 g of water was dissolved 8.0 g of a nutrient agar culture medium (Difco, Nutrient Broth), followed by high pressure steam sterilization (121° C., 15 min) to prepare a plate medium. The nutrient agar culture medium was smeared with each 100 μL of the suspension and cultured at 37° C. for 3 days.
(§3) Then, bacterial cells were suspended using a platinum loop in 500 μL of sterilized water, and the bacterial suspension was subjected to a heat shock at 65° C. for 35 min. Each 100 μL of the heat-shocked bacterial suspension and a not-heat-shocked bacterial suspension were smeared on the TS culture media respectively and cultured at 50° C. or 37° C. for 1 day. As the results of the cultures, colony formation was confirmed also with respect to the heat-shocked bacterial suspensions, to confirm that spores were formed for all of 11 strains. Further, since the bacteria were not stained by Gram staining, it was reconfirmed that spores were formed.
(§4) After confirming the spore formation, the bacterial cells were collected by a bacteria spreader, suspended in 10 mL of sterilized distilled water, and then centrifuged (8340×g, 4° C., 15 min). The supernatant was removed and thereafter the bacterial cells were washed twice with 10 mL of sterilized water. After washing, the bacterial cells were suspended in 5 mL of sterilized water, and the suspension was filtrated by sterilized Kimwipes. The filtrate was centrifuged (8340×g, 4° C., 15 min) to remove the supernatant, and the rest was adjusted to the turbidity (at 630 nm) of 1.0 with sterilized water.
(§5) After dissolving with stirring using a stirring rod with a propeller, filtration sterilization (0.45 μm filter) was conducted to prepare each 600 ppm-solution.
(§6) Five hundred (500) μL of each solution and 500 μL of each bacterial spore suspension were mixed. […] Defining the time point of mixing as the reaction initiation (0 min), and continuing shaking (150 rpm) at 37° C., the turbidity (630 nm) was measured at 10, 20, 30, 40, 50, 60, 90, 120, and 180 min after the reaction initiation.
(§7) Since the turbidity at 630 nm decreases by germination of spores, it has been known that the turbidity at 630 nm can be used to determine the germination rate.

[3] = tested on: Bacillus coagulans (NBRC 3887); experiment: as above; settings: 300 ppm; for turbidity (630 nm): 37° C., 150 rpm; for germination confirmed by turbidity decrease: up to 180 min
Description: as §1, §2, §3, §4, §5, §6, §7

[4] = tested on: Bacillus coagulans (NBRC 12583); experiment: as above; settings: 300 ppm; for turbidity (630 nm): 37° C., 150 rpm; for germination confirmed by turbidity decrease: up to 180 min
Description: as §1, §2, §3, §4, §5, §6, §7

[5] = tested on: Bacillus subtilis sp spizizenii (NBRC 101239); experiment: as above; settings: 300 ppm; for turbidity (630 nm): 37° C., 150 rpm
Description: as §1, §2, §3, §4, §5, §6, §7

[6] = tested on: Bacillus licheniformis (NBRC 12195); experiment: as above; settings: 300 ppm; for turbidity (630 nm): 37° C., 150 rpm; for germination confirmed by turbidity decrease: up to 180 min
Description: as §1, §2, §3, §4, §5, §6, §7

[7] = 0 min after reaction initiation
[8] = 10 min after reaction initiation
[9] = 20 min after reaction initiation
[10] = 30 min after reaction initiation
[11] = 40 min after reaction initiation
[12] = 50 min after reaction initiation
[13] = 60 min after reaction initiation
[14] = 90 min after reaction initiation
[15] = 120 min after reaction initiation
[16] = 180 min after reaction initiation

## COc1cc(/C=C/C(=O)O)ccc1O [Ferulic acid, ferulic acid]
[1]
  germination confirmed by turbidity decrease: decreased, thereby to confirm germination
[1]; [7]
  turbidity (630 nm): 0.545
[1]; [8]
  turbidity (630 nm): 0.527
[1]; [9]
  turbidity (630 nm): 0.513
[1]; [10]
  turbidity (630 nm): 0.484
[1]; [11]
  turbidity (630 nm): 0.466
[1]; [12]
  turbidity (630 nm): 0.449
[1]; [13]
  turbidity (630 nm): 0.413
[1]; [14]
  turbidity (630 nm): 0.368
[1]; [15]
  turbidity (630 nm): 0.313
[1]; [16]
  turbidity (630 nm): 0.233
[2]; [7]
  turbidity (630 nm): 0.602
[2]; [8]
  turbidity (630 nm): 0.578
[2]; [9]
  turbidity (630 nm): 0.558
[2]; [10]
  turbidity (630 nm): 0.548
[2]; [11]
  turbidity (630 nm): 0.535
[2]; [12]
  turbidity (630 nm): 0.506
[2]; [13]
  turbidity (630 nm): 0.493
[2]; [14]
  turbidity (630 nm): 0.471
[2]; [15]
  turbidity (630 nm): 0.430
[2]; [16]
  turbidity (630 nm): 0.335
[2]
  germination confirmed by turbidity decrease: the turbidity decreased
[3]; [7]
  turbidity (630 nm): 0.566
[3]; [8]
  turbidity (630 nm): 0.531
[3]; [9]
  turbidity (630 nm): 0.500
[3]; [10]
  turbidity (630 nm): 0.454
[3]; [11]
  turbidity (630 nm): 0.423
[3]; [12]
  turbidity (630 nm): 0.372
[3]; [13]
  turbidity (630 nm): 0.340
[3]; [14]
  turbidity (630 nm): 0.300
[3]; [15]
  turbidity (630 nm): 0.247
[3]; [16]
  turbidity (630 nm): 0.209
[3]
  germination confirmed by turbidity decrease: the turbidity decreased
[4]; [7]
  turbidity (630 nm): 0.558
[4]; [8]
  turbidity (630 nm): 0.520
[4]; [9]
  turbidity (630 nm): 0.518
[4]; [10]
  turbidity (630 nm): 0.510
[4]; [11]
  turbidity (630 nm): 0.460
[4]; [12]
  turbidity (630 nm): 0.392
[4]; [13]
  turbidity (630 nm): 0.350
[4]; [14]
  turbidity (630 nm): 0.266
[4]; [15]
  turbidity (630 nm): 0.217
[4]; [16]
  turbidity (630 nm): 0.198
[4]
  germination confirmed by turbidity decrease: the turbidity decreased
[5]; [7]
  turbidity (630 nm): 0.534
[5]; [8]
  turbidity (630 nm): 0.512
[5]; [9]
  turbidity (630 nm): 0.495
[5]; [10]
  turbidity (630 nm): 0.471
[5]; [11]
  turbidity (630 nm): 0.458
[5]; [12]
  turbidity (630 nm): 0.439
[5]; [13]
  turbidity (630 nm): 0.414
[5]; [14]
  turbidity (630 nm): 0.362
[5]; [15]
  turbidity (630 nm): 0.306
[5]; [16]
  turbidity (630 nm): 0.224
[5]; up to 180 min
  germination confirmed by turbidity decrease: germination was confirmed
[6]; [7]
  turbidity (630 nm): 0.541
[6]; [8]
  turbidity (630 nm): 0.521
[6]; [9]
  turbidity (630 nm): 0.502
[6]; [10]
  turbidity (630 nm): 0.480
[6]; [11]
  turbidity (630 nm): 0.449
[6]; [12]
  turbidity (630 nm): 0.430
[6]; [13]
  turbidity (630 nm): 0.392
[6]; [14]
  turbidity (630 nm): 0.368
[6]; [15]
  turbidity (630 nm): 0.324
[6]; [16]
  turbidity (630 nm): 0.290
[6]
  germination confirmed by turbidity decrease: the turbidity decreased

## COc1cc(C(=O)O)ccc1O [Vanillic acid, vanillic acid]
[1]
  germination confirmed by turbidity decrease: decreased, thereby to confirm germination
[1]; [7]
  turbidity (630 nm): 0.542
[1]; [8]
  turbidity (630 nm): 0.525
[1]; [9]
  turbidity (630 nm): 0.506
[1]; [10]
  turbidity (630 nm): 0.485
[1]; [11]
  turbidity (630 nm): 0.467
[1]; [12]
  turbidity (630 nm): 0.450
[1]; [13]
  turbidity (630 nm): 0.409
[1]; [14]
  turbidity (630 nm): 0.379
[1]; [15]
  turbidity (630 nm): 0.356
[1]; [16]
  turbidity (630 nm): 0.282
[2]; [7]
  turbidity (630 nm): 0.604
[2]; [8]
  turbidity (630 nm): 0.575
[2]; [9]
  turbidity (630 nm): 0.551
[2]; [10]
  turbidity (630 nm): 0.543
[2]; [11]
  turbidity (630 nm): 0.505
[2]; [12]
  turbidity (630 nm): 0.483
[2]; [13]
  turbidity (630 nm): 0.461
[2]; [14]
  turbidity (630 nm): 0.432
[2]; [15]
  turbidity (630 nm): 0.390
[2]; [16]
  turbidity (630 nm): 0.266
[2]
  germination confirmed by turbidity decrease: the turbidity decreased
[3]; [7]
  turbidity (630 nm): 0.559
[3]; [8]
  turbidity (630 nm): 0.550
[3]; [9]
  turbidity (630 nm): 0.473
[3]; [10]
  turbidity (630 nm): 0.411
[3]; [11]
  turbidity (630 nm): 0.364
[3]; [12]
  turbidity (630 nm): 0.321
[3]; [13]
  turbidity (630 nm): 0.295
[3]; [14]
  turbidity (630 nm): 0.230
[3]; [15]
  turbidity (630 nm): 0.182
[3]; [16]
  turbidity (630 nm): 0.130
[3]
  germination confirmed by turbidity decrease: the turbidity decreased
[4]; [7]
  turbidity (630 nm): 0.590
[4]; [8]
  turbidity (630 nm): 0.528
[4]; [9]
  turbidity (630 nm): 0.490
[4]; [10]
  turbidity (630 nm): 0.430
[4]; [11]
  turbidity (630 nm): 0.390
[4]; [12]
  turbidity (630 nm): 0.335
[4]; [13]
  turbidity (630 nm): 0.290
[4]; [14]
  turbidity (630 nm): 0.225
[4]; [15]
  turbidity (630 nm): 0.180
[4]; [16]
  turbidity (630 nm): 0.137
[4]
  germination confirmed by turbidity decrease: the turbidity decreased
[5]; [7]
  turbidity (630 nm): 0.529
[5]; [8]
  turbidity (630 nm): 0.520
[5]; [9]
  turbidity (630 nm): 0.516
[5]; [10]
  turbidity (630 nm): 0.512
[5]; [11]
  turbidity (630 nm): 0.510
[5]; [12]
  turbidity (630 nm): 0.510
[5]; [13]
  turbidity (630 nm): 0.502
[5]; [14]
  turbidity (630 nm): 0.488
[5]; [15]
  turbidity (630 nm): 0.479
[5]; [16]
  turbidity (630 nm): 0.474
[6]; [7]
  turbidity (630 nm): 0.536
[6]; [8]
  turbidity (630 nm): 0.513
[6]; [9]
  turbidity (630 nm): 0.483
[6]; [10]
  turbidity (630 nm): 0.438
[6]; [11]
  turbidity (630 nm): 0.393
[6]; [12]
  turbidity (630 nm): 0.324
[6]; [13]
  turbidity (630 nm): 0.278
[6]; [14]
  turbidity (630 nm): 0.196
[6]; [15]
  turbidity (630 nm): 0.151
[6]; [16]
  turbidity (630 nm): 0.092
[6]
  germination confirmed by turbidity decrease: the turbidity decreased

Reference: US20140308733A1, “METHOD FOR INDUCING GERMINATION OF SPORE FORMING BACTERIUM” (CALPIS CO., LTD., priority 2011, published 2014)
